Measured values from patent US12187681B2 (Shanghai East Hospital, priority 2019, dated 2025).
Structures can show the parent of a compound that is named as a salt.

Legend:
[1] = target: T1, hERG (human ether-a-go-go related gene potassium channel, KCNH2) (Homo sapiens, UniProt Q12809); test: hERG channel whole-cell patch clamp (Ion Channel Activity Measurement); assay type: cell-based; details: human, room temperature; for inhibition at 1 μM: pH 7.4, 1 μM test article; for inhibition at 10 μM: pH 7.4, 10 μM test article
T1 construct: expressed in transfected cells; host or cells: HEK293
T1 sequence (Q12809 whole entry): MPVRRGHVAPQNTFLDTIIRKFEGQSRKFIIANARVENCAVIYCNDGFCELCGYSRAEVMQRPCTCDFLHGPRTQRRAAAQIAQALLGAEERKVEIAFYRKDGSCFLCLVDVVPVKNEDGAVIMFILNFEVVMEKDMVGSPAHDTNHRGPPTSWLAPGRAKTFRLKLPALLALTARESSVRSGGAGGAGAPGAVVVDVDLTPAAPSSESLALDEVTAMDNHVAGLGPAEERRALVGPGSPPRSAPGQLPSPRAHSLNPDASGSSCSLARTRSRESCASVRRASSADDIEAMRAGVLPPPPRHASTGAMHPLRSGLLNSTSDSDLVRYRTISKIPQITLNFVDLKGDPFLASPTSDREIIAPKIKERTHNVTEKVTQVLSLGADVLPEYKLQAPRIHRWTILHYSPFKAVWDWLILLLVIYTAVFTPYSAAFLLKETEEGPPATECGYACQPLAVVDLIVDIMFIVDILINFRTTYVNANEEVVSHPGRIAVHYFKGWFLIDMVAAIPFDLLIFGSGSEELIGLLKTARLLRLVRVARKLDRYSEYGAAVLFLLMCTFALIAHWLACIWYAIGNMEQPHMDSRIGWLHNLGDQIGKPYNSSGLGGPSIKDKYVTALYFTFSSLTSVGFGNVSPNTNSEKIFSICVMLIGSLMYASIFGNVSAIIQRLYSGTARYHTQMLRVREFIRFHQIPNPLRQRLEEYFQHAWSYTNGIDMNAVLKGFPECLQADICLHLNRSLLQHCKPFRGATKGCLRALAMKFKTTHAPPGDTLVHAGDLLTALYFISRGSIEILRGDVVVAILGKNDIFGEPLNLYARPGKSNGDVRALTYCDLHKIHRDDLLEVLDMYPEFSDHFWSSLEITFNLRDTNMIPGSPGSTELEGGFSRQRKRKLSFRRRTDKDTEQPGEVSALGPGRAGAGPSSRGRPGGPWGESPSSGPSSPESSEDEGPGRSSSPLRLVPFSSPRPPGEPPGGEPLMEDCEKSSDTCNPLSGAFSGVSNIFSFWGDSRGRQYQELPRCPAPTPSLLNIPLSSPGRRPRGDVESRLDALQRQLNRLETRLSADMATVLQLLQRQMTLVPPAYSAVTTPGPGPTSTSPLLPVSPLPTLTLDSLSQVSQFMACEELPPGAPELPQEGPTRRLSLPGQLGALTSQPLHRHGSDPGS
Description: HEK293 cell line expressing the human ERG (ether-a-go-go related gene) potassium channel (Potassium voltage-gated channel subfamily H member 2). cDNA strictly similar to GenBank accession number: NM_000238
(§1) Cells expressing channels were cultured in medium supplemented with 20% FBS in HAM'S F12 culture dish. Cells grew in a humidified incubator at 37° C. under 5% carbon dioxide. To passage cells, remove poor medium and rinse the cells once with PBS 1X. […] Place plate on a 37° C. warming incubator 5 min. As soon as cells are detached, add 5 ml of 37° C. complete medium. Draw cell suspension into a sterile pipet and homogenize cells gently to dissociate cells aggregates. Amplify or maintain the cells by seeding 2.5*105 cells in a 6 cm dish (final volume: 5 ml). To maintain electrophysiological performances, cell density must not exceed 80%. On the day before patch clamp experiment, 3*103 cells were seeded on coverslips in the 24-well plate and incubated at 37° C. in 5% carbon dioxide.
(§2) Glass pipette (BF150-86-10, Sutter Instruments) was made by puller (P97, Sutter Instruments). The glass pipette was manipulated using Micro-manipulator (Carm-C-S, MCI Instruments) under the microscope (AE31EF-INV, Motic). After touching the cell, a slight suction was applied to achieve high seal (GΩ). Fast capacitance (in pF) compensation was made after high seal was achieved; after achieving high seal, the membrane was broken, Cell capacitance (in pF) compensation was made from whole-cell capacitance compensation after the whole cell mode was achieved. No leak subtraction was made.
(§3) Cell was incubated with the test article for 5 minutes, or until the current reached a steady-state level. Multiple concentrations of test article were tested. The test articles were applied gradually from low to high concentration. The test and control solutions were flown into a recording chamber mounted on the stage of an inverted microscope via a gravity-fed solution delivery system. During the experiment, solutions were withdrawn from the recording chamber by vacuum aspiration. Each concentration was tested at multiple times. Each cell acted as its own control. All tests were performed at room temperature (23-25° C.).
hERG current was recorded under a holding potential at −80 mV and then depolarized to 30 mV for 2.5 seconds to activate the hERG channel. The peak tail currents were induced by a repolarizing pulse to −50 mV for 4 seconds. This voltage-clamp pulse protocol was performed continuously during the experiment. An interpulse interval of 10 seconds allowed recovery from inactivation. An interpulse of −50 mV test for 0.5 second before 30 mV depolarized step was included for leak current correction

[2] = target: T2, CaV1.2 (L-type voltage-dependent calcium channel; CACNA1C, CACNB2, CACNA2D1) (Homo sapiens, UniProt Q13936); test: CaV1.2 channel whole-cell patch clamp (Ion Channel Activity Measurement); assay type: cell-based; details: human, room temperature; for inhibition at 5 min, 1 μM: pH 7.4, 1 μM test article; for inhibition at 5 min, 10 μM: pH 7.4, 10 μM test article, read-out: CaV 1.2 10 μM (ion-channel inhibition)
T2 construct: expressed in transfected cells; host or cells: CHO
T2 sequence (Q13936 1-2138 isoform Q13936-12): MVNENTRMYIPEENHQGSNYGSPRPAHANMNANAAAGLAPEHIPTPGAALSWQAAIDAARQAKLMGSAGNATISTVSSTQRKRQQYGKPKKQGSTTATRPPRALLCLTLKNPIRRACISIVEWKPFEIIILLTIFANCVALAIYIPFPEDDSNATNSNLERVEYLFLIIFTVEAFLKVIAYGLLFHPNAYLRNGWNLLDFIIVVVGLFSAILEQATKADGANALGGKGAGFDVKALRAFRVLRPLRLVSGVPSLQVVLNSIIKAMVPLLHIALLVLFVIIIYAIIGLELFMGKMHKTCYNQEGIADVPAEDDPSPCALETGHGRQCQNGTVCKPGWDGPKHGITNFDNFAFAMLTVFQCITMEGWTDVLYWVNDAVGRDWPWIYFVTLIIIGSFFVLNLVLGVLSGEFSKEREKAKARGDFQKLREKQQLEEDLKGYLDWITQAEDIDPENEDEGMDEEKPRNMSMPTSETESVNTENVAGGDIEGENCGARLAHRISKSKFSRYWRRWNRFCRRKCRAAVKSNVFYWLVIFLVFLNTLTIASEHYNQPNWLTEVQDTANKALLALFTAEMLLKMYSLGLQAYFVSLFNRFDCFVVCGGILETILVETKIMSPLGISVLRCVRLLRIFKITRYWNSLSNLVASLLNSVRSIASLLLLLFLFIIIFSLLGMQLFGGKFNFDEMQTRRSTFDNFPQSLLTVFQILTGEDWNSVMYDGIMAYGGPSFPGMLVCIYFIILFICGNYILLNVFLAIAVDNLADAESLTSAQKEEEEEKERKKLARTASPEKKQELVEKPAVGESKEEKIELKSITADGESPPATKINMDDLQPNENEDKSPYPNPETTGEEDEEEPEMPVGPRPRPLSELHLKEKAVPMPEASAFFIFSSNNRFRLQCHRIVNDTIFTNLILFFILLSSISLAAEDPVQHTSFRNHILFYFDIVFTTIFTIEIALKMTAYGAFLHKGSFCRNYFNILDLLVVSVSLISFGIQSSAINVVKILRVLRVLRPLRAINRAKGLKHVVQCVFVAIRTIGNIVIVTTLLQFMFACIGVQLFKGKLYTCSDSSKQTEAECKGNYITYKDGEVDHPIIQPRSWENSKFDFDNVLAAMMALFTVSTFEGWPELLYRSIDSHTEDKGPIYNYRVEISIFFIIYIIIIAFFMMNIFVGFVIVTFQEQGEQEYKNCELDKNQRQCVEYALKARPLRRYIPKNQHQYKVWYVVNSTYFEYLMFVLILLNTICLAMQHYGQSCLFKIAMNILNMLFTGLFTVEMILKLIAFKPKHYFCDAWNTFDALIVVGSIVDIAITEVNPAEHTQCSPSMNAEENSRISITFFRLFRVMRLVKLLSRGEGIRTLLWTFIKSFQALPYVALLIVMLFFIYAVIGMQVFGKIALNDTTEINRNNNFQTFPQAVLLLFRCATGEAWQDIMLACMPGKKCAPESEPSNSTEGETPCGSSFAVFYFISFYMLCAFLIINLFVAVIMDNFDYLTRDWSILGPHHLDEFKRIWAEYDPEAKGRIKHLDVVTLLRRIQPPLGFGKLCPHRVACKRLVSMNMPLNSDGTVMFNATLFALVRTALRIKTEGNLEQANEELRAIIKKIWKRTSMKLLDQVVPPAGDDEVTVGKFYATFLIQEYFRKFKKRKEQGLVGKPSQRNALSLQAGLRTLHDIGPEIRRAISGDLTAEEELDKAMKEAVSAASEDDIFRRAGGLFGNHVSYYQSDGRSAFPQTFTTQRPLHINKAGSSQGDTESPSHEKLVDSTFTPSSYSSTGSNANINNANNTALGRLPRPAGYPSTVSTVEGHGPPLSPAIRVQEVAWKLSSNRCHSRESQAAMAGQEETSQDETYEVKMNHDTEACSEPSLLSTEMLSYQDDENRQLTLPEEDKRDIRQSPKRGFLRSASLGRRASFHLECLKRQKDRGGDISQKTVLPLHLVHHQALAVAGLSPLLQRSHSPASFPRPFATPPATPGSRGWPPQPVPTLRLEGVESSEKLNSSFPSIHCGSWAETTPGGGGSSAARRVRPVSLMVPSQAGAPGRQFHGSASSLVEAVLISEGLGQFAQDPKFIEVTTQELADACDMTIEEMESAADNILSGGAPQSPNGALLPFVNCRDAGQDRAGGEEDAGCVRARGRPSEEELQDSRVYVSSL
T2 sequence (Q08289 1-605 isoform Q08289-2 partner): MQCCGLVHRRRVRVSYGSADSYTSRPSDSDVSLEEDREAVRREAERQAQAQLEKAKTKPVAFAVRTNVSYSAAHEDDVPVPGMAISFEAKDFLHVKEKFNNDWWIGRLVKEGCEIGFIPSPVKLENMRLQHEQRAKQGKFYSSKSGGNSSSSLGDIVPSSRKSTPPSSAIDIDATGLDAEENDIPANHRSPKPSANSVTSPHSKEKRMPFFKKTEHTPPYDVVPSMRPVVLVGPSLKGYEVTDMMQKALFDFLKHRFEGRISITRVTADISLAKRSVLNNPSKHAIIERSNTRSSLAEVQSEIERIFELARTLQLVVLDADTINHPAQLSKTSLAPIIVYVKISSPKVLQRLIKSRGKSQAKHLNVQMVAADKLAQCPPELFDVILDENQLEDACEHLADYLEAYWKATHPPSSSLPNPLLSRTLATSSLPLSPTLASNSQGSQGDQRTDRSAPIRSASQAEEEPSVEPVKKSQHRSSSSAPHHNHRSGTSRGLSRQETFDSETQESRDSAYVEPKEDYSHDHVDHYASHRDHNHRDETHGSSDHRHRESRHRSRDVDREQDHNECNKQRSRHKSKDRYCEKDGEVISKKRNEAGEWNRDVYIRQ
T2 sequence (P54289 25-1091 isoform P54289-2 partner limits assumed): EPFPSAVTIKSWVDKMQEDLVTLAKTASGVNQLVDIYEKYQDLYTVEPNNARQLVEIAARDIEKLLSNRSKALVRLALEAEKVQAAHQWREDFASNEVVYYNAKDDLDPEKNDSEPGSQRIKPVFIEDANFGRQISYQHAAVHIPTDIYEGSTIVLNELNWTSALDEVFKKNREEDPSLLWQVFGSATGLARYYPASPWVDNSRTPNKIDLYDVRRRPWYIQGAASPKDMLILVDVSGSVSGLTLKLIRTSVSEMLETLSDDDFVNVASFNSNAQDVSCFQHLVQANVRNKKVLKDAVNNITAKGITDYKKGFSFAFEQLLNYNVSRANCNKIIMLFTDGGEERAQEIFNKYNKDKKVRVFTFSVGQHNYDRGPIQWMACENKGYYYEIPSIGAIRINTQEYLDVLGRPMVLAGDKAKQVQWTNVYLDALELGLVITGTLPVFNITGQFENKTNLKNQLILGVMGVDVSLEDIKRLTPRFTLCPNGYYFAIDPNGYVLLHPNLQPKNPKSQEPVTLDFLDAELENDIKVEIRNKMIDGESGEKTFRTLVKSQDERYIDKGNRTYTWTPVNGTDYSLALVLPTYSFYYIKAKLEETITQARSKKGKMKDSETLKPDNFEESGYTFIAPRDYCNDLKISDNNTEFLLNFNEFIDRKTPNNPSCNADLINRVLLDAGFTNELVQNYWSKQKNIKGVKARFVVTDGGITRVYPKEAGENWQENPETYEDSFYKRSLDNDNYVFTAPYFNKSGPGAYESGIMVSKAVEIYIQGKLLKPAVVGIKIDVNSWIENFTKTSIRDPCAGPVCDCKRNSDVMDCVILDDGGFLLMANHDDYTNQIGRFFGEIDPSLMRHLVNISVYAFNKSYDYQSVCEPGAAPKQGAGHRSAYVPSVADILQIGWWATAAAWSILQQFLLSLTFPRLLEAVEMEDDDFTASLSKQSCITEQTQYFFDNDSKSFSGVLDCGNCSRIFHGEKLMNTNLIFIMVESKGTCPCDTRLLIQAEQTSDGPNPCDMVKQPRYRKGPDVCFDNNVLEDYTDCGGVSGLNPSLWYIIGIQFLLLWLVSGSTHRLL
T2 sequence (P54289 957-1103 partner limits assumed): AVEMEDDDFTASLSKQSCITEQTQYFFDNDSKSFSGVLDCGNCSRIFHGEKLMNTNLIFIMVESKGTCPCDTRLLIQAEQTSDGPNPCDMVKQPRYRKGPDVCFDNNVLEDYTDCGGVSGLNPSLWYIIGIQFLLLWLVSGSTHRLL
Description: • CHO cell line stably expressing human calcium channel, voltage-dependent, L type, • CACNA1C: cDNA strictly similar to GenBank accession number: NM_000719 • CACNB2: cDNA strictly similar to GenBank accession number: NM_000724 • CACNA2D1: cDNA strictly similar to GenBank accession number: NM_000722 Iks Channel Cell Line:
as §1
Bath solution: 140 mM TEA-C1, 2 mM MgCl2·6H2O, 10 mM CaCl2, 10 mM HEPES, 5 mM D-glucose, pH=7.4 with TEA-OH. Pipette solution: 120 mM CsCl, 1 mM MgCl2·6H2O, 10 mM HEPES, 10 mM EGTA, 0.3 mM Na2-GTP, 4 mM Mg-ATP, pH=7.2 with CsOH.
as §2, §3
Cav1.2 current was recorded under a holding potential at −80 mV and then depolarized to +10 mV for 0.3 seconds. This protocol was repeated at 20 s intervals to observe the effect of test articles on the peak of Cav1.2 current.

[3] = HEK293 cells expressing the human ERG potassium channel

SMILES | inhibition at 1 μM [1, 3] [%] | inhibition at 10 μM [1, 3] [%] | inhibition at 5 min, 1 μM [2] [%] | inhibition at 5 min, 10 μM [2] [%] | inhibition at 1 μM [1] [%] | inhibition at 10 μM [1] [%]
O=C(O)c1ccc2c(Cc3c(O)ccc4ccccc34)c(O)ccc2c1 [Compound A114, 6-hydroxy-5-((2-hydroxynaphthalen-1-yl)methyl)-2-naphthoic acid] | < 25 | 50 to 75 | < 25 | < 25 |  | 
Oc1cccc(-c2cccnc2)c1Cc1c(O)cccc1-c1cccnc1 [Compound A117, 2,2′-methylenebis(3-(pyridin-3-yl)phenol)] | < 25 | < 25 | < 25 | 25 to 50 |  | 
COc1cccc(-c2cccnc2)c1Cc1c(O)cccc1-c1cccnc1 [Compound A117-I-1, 2-(2-methoxy-6-(pyridin-3-yl)benzyl)-3-(pyridin-3-yl)phenol] | < 25 | 25 to 50 | < 25 | < 25 |  | 
COc1cccc(-c2ccncc2)c1Cc1c(O)cccc1-c1ccncc1 [Compound A118-I-1, 2-(2-methoxy-6-(pyridin-4-yl)benzyl)-3-(pyridin-4-yl)phenol] | < 25 | 25 to 50 | < 25 | < 25 |  | 
NC(=O)c1ccc2c(Cc3c(O)ccc4ccccc34)c(O)ccc2c1 [Compound A122, 6-hydroxy-5-((2-hydroxynaphthalen-1-yl)methyl)-2-naphthamide] | 25 to 50 | 75 to 100 | < 25 | 75 to 100 |  | 
NC(=O)c1ccc2c(Cc3c(O)ccc4cc(C(N)=O)ccc34)c(O)ccc2c1 [Compound A123, 5,5′-methylenebis(6-hydroxy-2-naphthamide)] | < 25 | 25 to 50 | < 25 | < 25 |  | 
CCN(CC)CCOc1ccc2cc(C(=O)O)ccc2c1Cc1c(O)ccc2cc(C(=O)O)ccc12 [Compound A125, 5-((6-carboxy-2-(2-(diethylamino)ethoxy)naphthalen-1-yl)methyl)-6-hydroxy-2-naphthoic acid] | < 25 |  | < 25 | 75 to 100 |  | 
COc1ccc2ccccc2c1Cc1c(OCC[N+]2(C)CCCC2)ccc2ccccc12 [Compound A129-2, 1-(2-((1-((2-methoxynaphthalen-1-yl)methyl)naphthalen-2-yl)oxy)ethyl)-1-methylpyrrolidin-1-ium formate] | 25 to 50 |  | 25 to 50 | 75 to 100 |  | 
Oc1ccc2ccccc2c1Cc1c(OCCN2CCOCC2)ccc2ccccc12 [Compound A130, 1-((2-(2-morpholinoethoxy)naphthalen-1-yl)methyl)naphthalen-2-ol] | < 25 | 75 to 100 | 25 to 50 | 75 to 100 |  | 
Oc1ccc2ccccc2c1Cc1c(OCCN2CCCCC2)ccc2ccccc12 [Compound A138, 1-((2-(2-(piperidin-1-yl)ethoxy)naphthalen-1-yl)methyl)naphthalen-2-ol] | 75 to 100 |  | < 25 | 75 to 100 |  | 
COc1ccc2ccccc2c1Cc1c(OCCO)ccc2ccccc12 [Compound A139-2, 2-((1-((2-methoxynaphthalen-1-yl)methyl)naphthalen-2-yl)oxy)ethan-1-ol] | 75 to 100 | 75 to 100 | < 25 | 75 to 100 |  | 
Oc1ccc2c(c1Cc1c(O)ccc3ccccc13)CNCC2 [Compound A141, 8-((2-hydroxynaphthalen-1-yl)methyl)-1,2,3,4-tetrahydroisoquinolin-7-ol] | < 25 | 25 to 50 | < 25 | < 25 |  | 
Oc1ccc2c(c1Cc1c(O)ccc3c1CNCC3)CCCC2 [Compound A141-I-1, 8-((2-hydroxy-5,6,7,8-tetrahydronaphthalen-1-yl)methyl)-1,2,3,4-tetrahydroisoquinolin-7-ol] | < 25 | < 25 | < 25 | < 25 |  | 
CCN(CC)CCOc1ccc2nccnc2c1Cc1c(O)ccc2ccccc12 [Compound A168, 1-((6-(2-(diethylamino)ethoxy)quinoxalin-5-yl)methyl)naphthalen-2-ol] | < 25 | < 25 | < 25 | < 25 |  | 
COc1cccc(C2CCNCC2)c1Cc1c(OC)cccc1C1CCNCC1 [Compound A194] |  |  | 25 to 50 | 50 to 75 | < 25 | 25 to 50
COc1ccc2ccccc2c1Cc1c(OCCN(CCO)CCO)ccc2ccccc12 [Compound A195, 2,2′-((2-((1-((2-methoxynaphthalen-1-yl)methyl)naphthalen-2-yl)oxy)ethyl)azanediyl)bis(ethan-1-ol)] | 75 to 100 | 75 to 100 | < 25 | 75 to 100 |  | 
COc1ccc2ccccc2c1Nc1c([N+](=O)[O-])ccc2ccccc12 [Compound A196, 2-methoxy-N-(2-nitronaphthalen-1-yl)naphthalen-1-amine] | < 25 | < 25 | < 25 | < 25 |  | 
CCN(CC)CC(=O)Oc1ccc2ccccc2c1Cc1c(OC)ccc2ccccc12 [Compound A232, 1-((2-methoxynaphthalen-1-yl)methyl)naphthalen-2-yl diethylglycinate] |  |  | < 25 | 75 to 100 | 50 to 75 | 75 to 100
O=C(c1c(O)ccc2ccccc12)c1c(OCCN2CCCC2)ccc2ccccc12 [Compound A234, (2-hydroxynaphthalen-1-yl)(2-(2-(pyrrolidin-1-yl)ethoxy)naphthalen-1-yl)methanone] | 75 to 100 | 75 to 100 | < 25 | 75 to 100 |  | 
CCN(CC)CCNC(=O)c1ccc2ccccc2c1Cc1c(OC)ccc2ccccc12 [Compound A238, N-(2-(diethylamino)ethyl)-1-((2-methoxynaphthalen-1-yl)methyl)-2-naphthamide] | 75 to 100 | 75 to 100 | 25 to 50 | 75 to 100 |  | 
CCOCOc1ccc2ccccc2c1Cc1c(OCCN)ccc2ccccc12 [Compound A244, 2-((1-((2-(ethoxymethoxy)naphthalen-1-yl)methyl)naphthalen-2-yl)oxy)ethan-1-amine] | 75 to 100 | 75 to 100 | < 25 | 25 to 50 |  | 
CCCCCCOc1ccc2ccccc2c1Cc1c(OCCN)ccc2ccccc12 [Compound A247, 2-((1-((2-(hexyloxy)naphthalen-1-yl)methyl)naphthalen-2-yl)oxy)ethan-1-amine] | < 25 |  | < 25 |  |  | 
CCOCOc1ccc2ccccc2c1Cc1c(OCCN2CCCC2)ccc2ccccc12 [Compound A254, 1-(2-((1-((2-(ethoxymethoxy)naphthalen-1-yl)methyl)naphthalen-2-yl)oxy)ethyl)pyrrolidine] | < 25 | 75 to 100 | < 25 | 50 to 75 |  | 
